Experimental findings from patent US20240343704A1, “HALO-SUBSTITUTED AMINO PYRIDINE COMPOUNDS AS INHIBITORS OF THE HAEMATOPOIETIC PROGENITOR KINASE 1 (HPK1)” (priority 2021, published 2024) are described below.

A word on the IC50: it is the concentration that gives 50% inhibition.

One experiment concerns the target Lck (h) (Homo sapiens, UniProt P06239). The experiment is described as follows: Lck Human  Kinase Enzymatic Radiometric Assay. The class given is biochemical. As to conditions: read-out: Lck IC50 nM Range*. Summed up: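 Substrate 33P-incorporation measured by scintillation counting after spotting on P30 filtermat and phosphoric acid washes. Human Lck reacted 40 min at RT in 50 mM Tris pH 7.5 with 10 mM MgAcetate, [gamma-33P]-ATP, 250 uM Cdc2 peptide, 0.1 mM EGTA and 0.1 mM Na3VO4.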

For experiment [1], the target named is T1, Recombinant (1-346) HPK1 (h) (Homo sapiens, UniProt Q92918).
T1 construct: Recombinant (1-346) HPK1 (h) is incubated with 8 mM MOPS pH 7.0
T1 sequence (Q92918 1-346): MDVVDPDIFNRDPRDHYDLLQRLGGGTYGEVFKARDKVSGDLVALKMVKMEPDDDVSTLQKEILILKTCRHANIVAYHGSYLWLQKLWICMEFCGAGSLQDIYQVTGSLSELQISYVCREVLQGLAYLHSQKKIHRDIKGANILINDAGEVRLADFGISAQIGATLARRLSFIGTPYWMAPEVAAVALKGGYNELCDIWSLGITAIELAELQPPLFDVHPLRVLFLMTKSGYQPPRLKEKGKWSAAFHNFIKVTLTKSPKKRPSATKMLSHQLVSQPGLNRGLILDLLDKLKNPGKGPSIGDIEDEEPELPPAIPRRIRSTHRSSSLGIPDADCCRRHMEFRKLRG
Kind of experiment: HPK1 Human STE Kinase Enzymatic Radiometric Assay. The class given is biochemical. As to conditions: read-out: HPK1 IC50 nM Range*. The protocol: A stock solution of 10 mM of test compound is prepared in DMSO. The compound plate was prepared by 3-fold and 9-point serial dilutions. […] The reaction is initiated by The addition of the Mg/ATP mix. After incubation for 40 minutes at RT, the reaction is stopped by the addition of phosphoric acid to a concentration of 0.5%.

Where a name gives a salt, the structure may show the parent alone. Some results are limits rather than exact numbers.

Lck (h), sequence (P06239 whole entry): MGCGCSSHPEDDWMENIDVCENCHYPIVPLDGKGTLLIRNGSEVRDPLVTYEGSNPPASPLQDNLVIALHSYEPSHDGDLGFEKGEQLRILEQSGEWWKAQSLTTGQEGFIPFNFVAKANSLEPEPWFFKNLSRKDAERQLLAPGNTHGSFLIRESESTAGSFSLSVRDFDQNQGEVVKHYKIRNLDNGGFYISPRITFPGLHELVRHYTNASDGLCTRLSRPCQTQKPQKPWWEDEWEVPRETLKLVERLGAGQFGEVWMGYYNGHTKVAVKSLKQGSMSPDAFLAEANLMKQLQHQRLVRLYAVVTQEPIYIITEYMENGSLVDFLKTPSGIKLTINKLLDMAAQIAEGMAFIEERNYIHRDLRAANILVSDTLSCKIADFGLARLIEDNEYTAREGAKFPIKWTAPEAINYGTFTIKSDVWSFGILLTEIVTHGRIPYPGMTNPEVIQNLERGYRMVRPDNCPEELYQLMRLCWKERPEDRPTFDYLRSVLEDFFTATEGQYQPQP

In the case of `CC(C)N1CCC(Oc2ccc(-c3cc(-c4ccc5c(c4)CCNC5=O)c(N)nc3F)c(F)c2F)CC1` [I-270, 6-(2-amino-5-(2,3-difluoro-4-((1-isopropylpiperidin-4-yl)oxy)phenyl)-6-fluoropyridin-3-yl)-3,4-dihydroisoquinolin-1(2H)-one], the IC50 at Lck (h) was greater than 1000 nM; in experiment [1], 11 to 100 nM.

As for `CC(C)N1CCN(c2ccc(-c3cc(-c4ccc5c(=O)[nH]cnc5c4)c(N)nc3F)cc2)CC1` [I-362, 7-(2-amino-6-fluoro-5-(4-(4-isopropylpiperazin-1-yl)phenyl)pyridin-3-yl)quinazolin-4(3H)-one], the IC50 on Lck (h) was greater than 1000 nM; in experiment [1] it was 0.1 to 10 nM.

In the case of `Nc1nc(F)c(-c2ccc(N3CCC(F)CC3)cc2)cc1-c1ccc2c(c1)CCNC2=O` [I-163, 6-(2-amino-6-fluoro-5-(4-(4-fluoropiperidin-1-yl)phenyl)pyridin-3-yl)-3,4-dihydroisoquinolin-1(2H)-one], the IC50 was greater than 1000 nM at Lck (h) and 0.1 to 10 nM in experiment [1].

Turning to `CN(C)Cc1cc(-c2cc(-c3ccc4c(c3)CCNC4=O)c(N)nc2F)ccc1N1CCN(CCCC(F)F)CC1` [I-445, 6-(2-amino-5-(4-(4-(4,4-difluorobutyl)piperazin-1-yl)-3-((dimethylamino)methyl)phenyl)-6-fluoropyridin-3-yl)-3,4-dihydroisoquinolin-1(2H)-one], the IC50 on Lck (h) was greater than 1000 nM; in experiment [1], 0.1 to 10 nM.

As for `Nc1nc(F)c(-c2ccc(N3CCN(CC4CC4)CC3)cc2)cc1-c1cc2c(F)c[nH]c(=O)c2cc1F` [I-548, 6-(2-amino-5-(4-(4-(cyclopropylmethyl)piperazin-1-yl)phenyl)-6-fluoropyridin-3-yl)-4,7-difluoroisoquinolin-1(2H)-one], the IC50 was greater than 1000 nM at Lck (h) and 0.1 to 10 nM in experiment [1].

As to `Nc1nc(F)c(-c2ccc(OC3CCN(CC(F)(F)F)CC3)c(C(F)(F)F)c2)cc1-c1ccc2c(c1)CCNC2=O` [I-201, 6-(2-amino-6-fluoro-5-(4-((1-(2,2,2-trifluoroethyl)piperidin-4-yl)oxy)-3-(trifluoromethyl)phenyl)pyridin-3-yl)-3,4-dihydroisoquinolin-1(2H)-one], the values for the concentration for half-maximal inhibition (IC50) (on Lck (h); in experiment [1]) were greater than 1000 nM and 101 to 1000 nM, respectively.

For `C[C@@H]1CN(c2ccc(-c3cc(-c4ccc5c(c4)CCNC5=O)c(N)nc3F)cc2)C[C@H](C)N1C(=O)OC(C)(C)C` [I-284, tert-butyl (2R,6S)-4-(4-(6-amino-2-fluoro-5-(1-oxo-1,2,3,4-tetrahydroisoquinolin-6-yl)pyridin-3-yl)phenyl)-2,6-dimethylpiperazine-1-carboxylate], the IC50 at Lck (h) was greater than 1000 nM; in experiment [1], 11 to 100 nM.

On to `CC(C)N1CCN(c2ccc(-c3cc(-c4ccc5c(=O)[nH]c(C(F)(F)F)nc5c4)c(N)nc3F)cc2)CC1` [I-435, 7-(2-amino-6-fluoro-5-(4-(4-isopropylpiperazin-1-yl)phenyl)pyridin-3-yl)-2-(trifluoromethyl)quinazolin-4(3H)-one], for which the IC50 on Lck (h) is greater than 1000 nM; in experiment [1], 101 to 1000 nM.

Regarding `Nc1nc(F)c(-c2ccc(C3=CCNC3)cc2)cc1-c1ccc2c(c1)CCNC2=O` [I-109, 6-(2-amino-5-(4-(2,5-dihydro-1H-pyrrol-3-yl)phenyl)-6-fluoropyridin-3-yl)-3,4-dihydroisoquinolin-1(2H)-one 2,2,2-trifluoroacetate], the IC50 at Lck (h) is greater than 1000 nM; in experiment [1], 0.1 to 10 nM.

With `Nc1nc(F)c(-c2ccc(N3CCNCC3)cc2)cc1-c1ccc2c(c1)CCNC2=O` [I-17, 6-(2-amino-6-fluoro-5-(4-(piperazin-1-yl)phenyl)pyridin-3-yl)-3,4-dihydroisoquinolin-1(2H)-one], the IC50 at Lck (h) is greater than 1000 nM; in experiment [1] it was 0.1 to 10 nM.

For the compound `CN(C)CC1Cc2cc(-c3cc(-c4ccc(Cl)cc4)c(F)nc3N)ccc2C(=O)N1` (centres unmarked) [I-312, 6-(2-amino-5-(4-chlorophenyl)-6-fluoropyridin-3-yl)-3-((dimethylamino)methyl)-3,4-dihydroisoquinolin-1(2H)-one], the results for the IC50 (at Lck (h); in experiment [1]) were greater than 1000 nM and 101 to 1000 nM, respectively.

For `Nc1nc(F)c(-c2ccc(C3COCCN3CC(F)F)cc2)cc1-c1ccc2c(c1)CCNC2=O` (centres unmarked) [I-133, 6-(2-amino-5-(4-(4-(2,2-difluoroethyl)morpholin-3-yl)phenyl)-6-fluoropyridin-3-yl)-3,4-dihydroisoquinolin-1(2H)-one], the IC50 on Lck (h) was greater than 1000 nM; in experiment [1] it was 0.1 to 10 nM.

In the case of `CC(C)N1CC=C(c2ccc(-c3cc(-c4ccc5c(c4)CCNC5=O)c(N)nc3F)cc2)C1` [I-121, 6-(2-amino-6-fluoro-5-(4-(1-isopropyl-2,5-dihydro-1H-pyrrol-3-yl)phenyl)pyridin-3-yl)-3,4-dihydroisoquinolin-1(2H)-one], the IC50 was greater than 1000 nM at Lck (h) and 0.1 to 10 nM in experiment [1].

On to `Nc1nc(F)c(-c2ccc(OC3CNC3)cc2)cc1-c1ccc2c(c1)CCNC2=O` [I-146, 6-(2-amino-5-(4-(azetidin-3-yloxy)phenyl)-6-fluoropyridin-3-yl)-3,4-dihydroisoquinolin-1(2H)-one], for which the IC50 on Lck (h) is greater than 1000 nM; in experiment [1] it was 11 to 100 nM.

For `Nc1nc(F)c(-c2ccc(N3CCOCC3)c(CN3CCC3)c2F)cc1-c1ccc2c(c1)CCNC2=O` [I-609, 6-(2-amino-5-(3-(azetidin-1-ylmethyl)-2-fluoro-4-morpholinophenyl)-6-fluoropyridin-3-yl)-3,4-dihydroisoquinolin-1(2H)-one], the IC50 was greater than 1000 nM on Lck (h) and 11 to 100 nM in experiment [1].

On to `Cc1nc2cc(-c3cc(-c4ccc(N5CCN(CCC6CC6)CC5)cc4)c(F)nc3N)cc(F)c2c(=O)[nH]1` [I-417, 7-(2-amino-5-(4-(4-(2-cyclopropylethyl)piperazin-1-yl)phenyl)-6-fluoropyridin-3-yl)-5-fluoro-2-methylquinazolin-4(3H)-one], for which the figures for the IC50 (on Lck (h); in experiment [1]) were greater than 1000 nM and 0.1 to 10 nM, respectively.

Consider `Cc1cc(-c2cc(-c3cc4c(cc3F)C(=O)NCC4)c(N)nc2F)ccn1` [I-313, 6-(6-amino-2-fluoro-2′-methyl-[3,4′-bipyridin]-5-yl)-7-fluoro-3,4-dihydroisoquinolin-1(2H)-one], for which the IC50 on Lck (h) was greater than 1000 nM; in experiment [1] it was 11 to 100 nM.

As for `CN(C)S(=O)(=O)c1ccc(-c2cc(-c3ccc4c(c3)CCNC4=O)c(N)nc2F)cc1` [I-64, 4-(6-amino-2-fluoro-5-(1-oxo-1,2,3,4-tetrahydroisoquinolin-6-yl)pyridin-3-yl)-N,N-dimethylbenzenesulfonamide], the IC50 is greater than 1000 nM at Lck (h) and 0.1 to 10 nM in experiment [1].

As to `Nc1nc(F)c(-c2ccc(N3CCN(CCCC(F)F)CC3)cc2)cc1-c1cc(F)c2c(c1)CCNC2=O` [I-440, 6-(2-amino-5-(4-(4-(4,4-difluorobutyl)piperazin-1-yl)phenyl)-6-fluoropyridin-3-yl)-8-fluoro-3,4-dihydroisoquinolin-1(2H)-one], the results for the IC50 (at Lck (h); in experiment [1]) were greater than 1000 nM and 0.1 to 10 nM, respectively.

On to `Nc1nc(F)c(-c2ccc([C@]34C[C@H]3CN(CC3CC3)C4)cc2)cc1-c1cc(F)c2c(c1)CCNC2=O` [I-320, 6-(2-amino-5-(4-((1S,5R)-3-(cyclopropylmethyl)-3-azabicyclo[3.1.0]hexan-1-yl)phenyl)-6-fluoropyridin-3-yl)-8-fluoro-3,4-dihydroisoquinolin-1(2H)-one formate], for which the IC50 at Lck (h) is 101 to 1000 nM; in experiment [1] it was 0.1 to 10 nM.

Consider `CN1CCN(c2ccc(-c3cc(-c4cc5c(cc4F)C(=O)NCC5)c(N)nc3F)cc2F)CC1` [I-247, 6-(2-amino-6-fluoro-5-(3-fluoro-4-(4-methylpiperazin-1-yl)phenyl)pyridin-3-yl)-7-fluoro-3,4-dihydroisoquinolin-1(2H)-one], for which the IC50 on Lck (h) is greater than 1000 nM; in experiment [1], 0.1 to 10 nM.

In the case of `CCN1CCN(c2ccc(-c3cc(-c4cc5c(cc4F)C(=O)NCC5)c(N)nc3F)cc2)CC1` [I-211, 6-(2-amino-5-(4-(4-ethylpiperazin-1-yl)phenyl)-6-fluoropyridin-3-yl)-7-fluoro-3,4-dihydroisoquinolin-1(2H)-one], the half-maximal inhibitory concentration (IC50) on Lck (h) was greater than 1000 nM; in experiment [1] it was 0.1 to 10 nM.

Regarding `CN1C[C@H]2C[C@@]2(c2ccc(-c3cc(-c4cc(F)c5c(c4)CCNC5=O)c(N)nc3F)cc2)C1` [I-352, 6-(2-amino-6-fluoro-5-(4-((1R,5S)-3-methyl-3-azabicyclo[3.1.0]hexan-1-yl)phenyl)pyridin-3-yl)-8-fluoro-3,4-dihydroisoquinolin-1(2H)-one], the IC50 at Lck (h) is greater than 1000 nM; in experiment [1], 0.1 to 10 nM.

Take `CNCc1nc2cc(-c3cc(-c4ccc(N5CCN(C(C)C)CC5)cc4)c(F)nc3N)ccc2c(=O)[nH]1` [I-410, 7-(2-amino-6-fluoro-5-(4-(4-isopropylpiperazin-1-yl)phenyl)pyridin-3-yl)-2-((methylamino)methyl)quin-azolin-4(3H)-one]: the values for the IC50 (on Lck (h); in experiment [1]) were greater than 1000 nM and 11 to 100 nM, respectively.

With `C[Si](C)(O)c1ccc(-c2cc(-c3ccc4c(c3)CCNC4=O)c(N)nc2F)cc1` [I-28, 6-(2-amino-6-fluoro-5-(4-(hydroxydimethylsilyl)phenyl)pyridin-3-yl)-3,4-dihydroisoquinolin-1(2H)-one], the IC50 at Lck (h) is greater than 1000 nM; in experiment [1], 11 to 100 nM.
